Data set [1] in a line: Storage at 40° C./75% RH (XRPD, HPLC purity, colour). Type of data set: physicochemical. The following applies: 4 weeks at 40° C./75% RH under ambient light conditions.
Data set [2] deals with stress-induced accelerated colonic transit. The data set is described as follows: Water avoidance stress (WAS) fecal pellet output, model of increased colonic transit. It counts as in vivo, rat. On the procedure:
Preliminary testing in the water avoidance stress model confirmed that there exists an association between stress and altered colonic motility. Fecal pellet output was measured by counting the total number of fecal pellets produced during 1 hour of WAS. Using the WAS model, the effect of MCI-225 was compared to the effects of ondansetron (5-HT3 antagonist) or nisoxetine (noradrenaline reuptake inhibitor—NARI) to affect fecal pellet output.
Adult male F-344 rats, supplied by Charles River Laboratories and weighing 270-350 g, were used to complete this study. The rats were housed 2 per cage under standard conditions. Following one to two weeks of acclimatization to the animal facility, the rats were brought to the laboratory and handled daily for another week to acclimatize them to laboratory conditions and to the research associate who performed the studies. All procedures used in this study were approved in accordance with facility standards.
All rats underwent sham stress (1-hour in stress chamber without water) for 2-4 consecutive days before undergoing WAS (sham was performed until rats produced 0-1 pellet per hour for 2 consecutive days). At the end of the 1-hour stress period, the fecal pellets were counted and recorded.
WAS causes an acceleration of colonic transit, which can be quantified by counting the number of fecal pellets, produced during the stress procedure. Rats were placed for 1-hour into a stress chamber onto a raised platform 7.5 cm×7.5 cm×9 cm (L×W×H) in the center of a stress chamber filled with room temperature water 8 cm in depth. The stress chamber was constructed from a rectangular plastic tub (40.2×60.2×31.2 cm).
Control drugs for this study were ondansetron and nisoxetine. Ondansetron was supplied from APIN Chemicals LTD. Nisoxetine was supplied by Tocris. MCI-225 was provided by Mitsubishi Pharma Corp. All drugs were dissolved in a vehicle of 100% propylene glycol (1,2-propanediol) by sonicating for a period of 10 minutes. […]
Statistical significance was assessed using one-way ANOVA followed by Tukey post-test. […]

Data set [3] deals with small intestinal transit. The experiment in a line: Small Intestinal Transit Rodent Model (charcoal meal). Type of data set: in vivo, rat. On the procedure:
Following an overnight fast, rats were brought to the laboratory in their home cages and received an i.p. injection of one of the following: […] Control rats received no treatment. The treated rats were placed back in the home cages and after 30 min, were fed a 2 mL charcoal meal via an oral gavage. Small intestinal transit was measured following 15 min test-period. Each rat was placed briefly in a glass chamber with IsoFlo for anesthesia and sacrificed. The stomach and the small intestine were removed and the total length of the small intestine was measured. Transit was then measured as the distance that the charcoal meal had traveled along the small intestine and expressed as % of the total length. Animals were randomly assigned to experimental groups and experiments were performed as illustrated in Table 3. Ondansetron was supplied from APIN Chemicals LTD. […] MCI-225 was provided by Mitsubishi Pharma Corp. All drugs were dissolved in a vehicle of 100% propylene glycol (1,2-Propanediol) by sonicating for 10 min. Propylene glycol was obtained from Sigma Chemical Co. Ondansetron, a 5-HT3-receptor antagonist was dosed i.p. at 1, 5, and 10 mg/kg. […] All doses were delivered in a final volume of 200 μL. Animals in the vehicle control group received 200 μL of 100% Propylene glycol and animals in the normal control group were untreated. Adult male F-344 rats (230-330 g) were used in the study. The rats were housed 2 per cage under standard conditions. The animals were fed a standard rodent diet and food and water were provided “ad libitum”. Rats were allowed to acclimatize to the animal facility for one week prior to the transit experiments. […] The distance traveled by the charcoal meal was quantified as a percent of the small intestinal length, using the following equation: Transit(%)=cm traveled by meal/cm total small intestinal length×100 […] […] Differences between individual dose groups within treatments and comparisons between drug-treated and vehicle-treated groups were determined using an unpaired t test considering that when % is used as a relative unit, t-statistic is relevant. […]

The test system of data set [4] is acetic acid-induced colonic hypersensitivity. The data set is described as follows: Visceromotor response to colorectal distension, acetic acid-induced colonic hypersensitivity. Type of data set: in vivo, rat. The protocol:
A 10 min recovery was allowed between distensions.
Adult male rats were used in the study.
Ten minute recovery periods were allowed following each distension.
Statistical significance of the treatment groups was assessed using one-way ANOVA followed by Tukey post-test. […] (*) p<0.05, (**) p<0.01, (***) p<0.001

The test system of data set [5] is cisplatin-induced emesis. The experiment in a line: Cisplatin-induced emesis in the ferret. Type of data set: in vivo, ferret (Mustela putario furo). The following applies: 5 mg/kg and 10 mg/kg i.p. The protocol:
Adult male ferrets (Mustela putario furo) weighing 1200-1880 g were purchased from Triple F Farms (Sayre, Pa.) and housed in individual cages at standardized conditions (12:12 h light/dark cycle and 21-23° C.). Prior to the experiments, the ferrets were allowed a 7-10 day acclimatization period to the animal facility. The ferrets were fed a carnivore diet with free access to food and water throughout the course of the study. The use of the ferret model of emesis and the drug treatment were preapproved in accordance with facility standards. A cisplatin solution was prepared by adding preheated (70° C.) saline to cisplatin powder (Sigma-Aldrich Co.) and stirring or sonicating at 40° C. until dissolved. Following administration of the cisplatin and either MCI-225, ondansetron or vehicle alone, the occurrence of retching and vomiting was monitored for a period of 6 hours. Retching was defined as the number of forceful rhythmic contractions of the abdomen occurring with the animal in characteristic posture, but not resulting in the expulsion of upper gastrointestinal tract contents (Watson et al., British Journal of Pharmacology, 115(1): 84-94 (1994)). […] The latency of the retching or vomiting response and the number of episodes were recorded for each animal and summarized for each experimental group (Wright et al., Infect. Immun., 68(4): 2386-9 (2000)). […]

Experimental findings from patent US20120202825A1, “Soluble Salts of Thieno [2,3-d] Pyrimidine Derivatives” (priority 2011, published 2012) are described below.

Turning to “4-(2-fluorophenyl)-6-methyl-2-(piperazin-1-yl)thieno[2,3-d]pyrimidine hydrochloride [MCI-225]”, the “colour of material surface after storage” value in data set [1] was “gone yellow”.
`CNCCC(Oc1ccccc1OC)c1ccccc1` (stereo not drawn) [Nisoxetine]: the “WAS-induced fecal pellet output during 1 hour” value in data set [2] (rats, 3, 10 and 30 mg/kg i.p.) is given as “reduced by all doses”. The “fecal pellets produced during WAS compared to the vehicle treated group” value in data set [2] (rats, 10 and 30 mg/kg i.p.) was “significantly fewer”. In addition, the small intestinal transit result in data set [3] (rats, 30 mg/kg i.p.) is “almost completely inhibited”; in data set [3] (rats, 3 or 10 mg/kg i.p.) it was “tendency to decrease”.
With `Cc1nccn1CC1CCc2c(c3ccccc3n2C)C1=O` (stereo not drawn) [Ondansetron], the “responses to moderate (30 mmHg) and high (60 mmHg) intraluminal pressure” value in data set [4] (rats, 10 mg/kg i.p. (highest dose)) is reported as “did not abolish the responses”. In addition, in data set [4] (rats, 1, 5 or 10 mg/kg i.p.), the “behavioral activity of the rats” value was “No significant changes”. Further, in data set [4] (rats, 1, 5 or 10 mg/kg i.p., all distension pressures, vs vehicle), the “number of abdominal contractions (visceromotor response to colorectal distension)” value is recorded as “dose-dependent decrease”. In addition, the “stress-induced fecal pellet output during 1 hour of WAS” value in data set [2] (rats, 1, 5 and 10 mg/kg i.p.) was “dose-dependent inhibition”. In addition, in data set [3] (rats, 1, 5 or 10 mg/kg i.p.), the small intestinal transit entry is given as “significant reduction”. In addition, in data set [5], the “latency of the first emetic response following cisplatin treatment” value is listed as “increase in the latency” and the “number of emetic events induced by cisplatin” value was “dose-dependently reduced”.
